These results are taken from US7399608B2, “Microbial detection and quantification” (Kimberly-Clark Worldwide, Inc., priority 2003, dated 2008).

For series [1], the system named is bacteria in aged chicken juice. The series can be described thus: N-docosyl-merocyanine dye coated onto cotton fabric, aged chicken juice. Particulars: 47 mg in 10 g dimethylformamide, supernatant on woven cotton.
Series [2] has as its system bacteria in aged chicken juice. The series can be described thus: Dye solution dropped onto aged chicken juice on SCOTT paper towel (comparative examples). To be noted: comparative dye solution dropped onto aged chicken juice on SCOTT paper towel.
The test system of series [3] is microbes in aged female human urine. Description: N-methylmerocyanine coated onto kitchen paper towel, aged urine.
Series [4] concerns budgerigar feces suspension. Description: N-methyl merocyanine coated paper towel, pet bird feces suspension. To be noted: Atlanta city domestic tap water. The procedure:
Budgerigar feces was collected from a caged pet budgie, and shaken in approximately 10 ml of Atlanta city domestic tap water. N-methyl merocyanine dye of structure 33 above was synthesized as described above.

The next series can be described thus: Bleach indicator test. In kind it is physicochemical. To be noted: mixture with Reichardt's dye coated on SCOTT towel.

Regarding `CCCCCCCCCCCCCCCCCCCCCC[n+]1ccc(C=Cc2ccc(O)cc2)cc1.[Br-]`, the “color change of orange-yellow dye spots on cotton” value in series [1] is on record as “color change to very pale yellow”.
For `O=C1/C(=C2\Nc3ccc(S(=O)(=O)[O-])cc3C2=O)Nc2ccc(S(=O)(=O)[O-])cc21.[Na+].[Na+]` [Cl Acid Blue 74, Indigo Carmine], the “color change on aged chicken juice” value in series [2] is listed as “No color changes were observed”.
`Cc1ccc(Nc2ccc(Nc3ccc(C)cc3S(=O)(=O)[O-])c3c2C(=O)c2ccccc2C3=O)c(S(=O)(=O)[O-])c1.[Na+].[Na+]` [Cl Acid Green 25]: the “color change on aged chicken juice” value in series [2] is on record as “No color changes were observed”.
Still for that read-out and setting: in the case of `Cc1ccc(Nc2ccc(Nc3ccc(C)cc3S(=O)(=O)[O-])c3c2C(=O)c2c(O)ccc(O)c2C3=O)c(S(=O)(=O)[O-])c1.[Na+].[Na+]` [Cl Acid Green 41] it was “No color changes were observed”; in that of `CC(=O)Nc1ccc(/N=N/c2c(N)ccc3cc(S(=O)(=O)[O-])cc(O)c23)c(S(=O)(=O)[O-])c1.[Na+].[Na+]` [Cl Acid Red 37], “No color changes were observed”; in that of `CCN(CC)c1ccc2c(-c3ccc(S(=O)(=O)O)cc3S(=O)(=O)[O-])c3ccc(=[N+](CC)CC)cc-3oc2c1` [Cl Acid Red 52, sulforhodamine B], “No color changes were observed”.
`O=C([O-])C1=NN(c2ccc(S(=O)(=O)[O-])cc2)C(=O)C1N=Nc1ccc(S(=O)(=O)[O-])cc1.[Na+].[Na+].[Na+]` (centres unmarked) [Cl Acid Yellow 23, tartrazine]: in series [2], the “color change on aged chicken juice” value is listed as “No color changes were observed”.
Consider `COc1cc(/C=C/c2cc[n+](C)cc2)ccc1[O-]` [N-methyl merocyanine dye], for which the “color change with aged urine filtered through 0.2 micron filter” value in series [3] (urine stored 24 hours at 37° C.) and in series [3] (urine stored 8 days at room temperature) was “did not cause a color change” each time. In series [4], the “color of coated towel with tap water control” value is “the area remained orange”.
Regarding `Cc1cc(-c2cc(C)c(N)c(C)c2)cc(C)c1N` [TMB, reference compound], the “response of TMB to dilute bleach” value in the series “Bleach indicator test” is “turning orange/yellow color”.
